Experimental findings from PubChem BioAssay (NCI) are described below.

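Cells were grown in 96-well plates and exposed to each compound for 48 hours at five concentrations; endpoints were interpolated linearly between bracketing concentrations, or set to the highest concentration if not reached. TGI denotes the concentration required for complete inhibition of growth.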

Among the test systems are IGROV1 ovarian; U251 CNS; RXF 393 renal; COLO 205 colon; CAKI-1 renal; MOLT-4 leukemia; KM12 colon; A549 NSCLC; SF-268 CNS; 786-0 renal; OVCAR-8 ovarian.
Test in all cases: NCI tumour cell line growth inhibition, 48 h

As to `O=C1C=C(C2=CC(=O)C(=O)c3ccccc32)c2ccccc2C1=O`, the TGI in the assay with IGROV1 ovarian was over 100 µM; with U251 CNS, over 100 µM; in the assay with RXF 393 renal, over 100 µM; in the assay on COLO 205 colon, 38.9 µM; in the assay on CAKI-1 renal, 47.8 µM; with MOLT-4 leukemia, 15.4 µM. For the same compound, the TGI is 39.8 µM in the assay on KM12 colon; over 100 µM in the assay with A549 NSCLC; 48.3 µM in the assay with SF-268 CNS; over 100 µM in the assay on 786-0 renal; 75.7 µM in the assay with OVCAR-8 ovarian.

In the case of `C=CC(CCc1ccc(C(=O)OCC)cc1)c1c(N)nc(N)[nH]c1=O` (stereo not given), the TGI in the assay on IGROV1 ovarian, in the assay with U251 CNS, with RXF 393 renal, in the assay on COLO 205 colon, in the assay on CAKI-1 renal and in the assay with MOLT-4 leukemia was over 100 µM in each case. For the same compound, the TGI with KM12 colon, in the assay with A549 NSCLC, with SF-268 CNS, in the assay with 786-0 renal and in the assay with OVCAR-8 ovarian was over 100 µM throughout.

Turning to `O=C1/C(=C/c2ccc([N+](=O)[O-])cc2)C(=O)N(c2ccccc2)C1c1ccccc1` (stereo not given), the TGI in the assay on IGROV1 ovarian, with U251 CNS, in the assay on RXF 393 renal, with COLO 205 colon, in the assay with CAKI-1 renal and in the assay on MOLT-4 leukemia was over 10 µM each time. The TGI with KM12 colon, in the assay on A549 NSCLC, in the assay with SF-268 CNS, in the assay on 786-0 renal and in the assay on OVCAR-8 ovarian was over 10 µM throughout.

On to `C[C@]12CCC(=O)O[C@H]1CCCCO2`, for which the TGI with IGROV1 ovarian, in the assay on U251 CNS, in the assay with RXF 393 renal, in the assay with COLO 205 colon, in the assay on CAKI-1 renal and with MOLT-4 leukemia was over 100 µM each time. For the same compound, the TGI with KM12 colon, in the assay with A549 NSCLC, in the assay on SF-268 CNS, in the assay with 786-0 renal and in the assay on OVCAR-8 ovarian was over 100 µM throughout.

Take `CCN(CC)C(=S)N/N=C(/C)c1cccc(/C(C)=N\NC(=S)N(CC)CC)n1`: the TGI in the assay on IGROV1 ovarian came to 8.08 µM; in the assay with U251 CNS, 8.74 µM; in the assay on RXF 393 renal it was 7.03 µM; in the assay on COLO 205 colon it was 11.3 µM; in the assay with CAKI-1 renal, 5.29 µM; in the assay with MOLT-4 leukemia it was 5.77 µM. The TGI in the assay with KM12 colon is 4.1 µM; in the assay with A549 NSCLC, 11.3 µM; with SF-268 CNS, 7.47 µM; with 786-0 renal it was 11.5 µM; in the assay with OVCAR-8 ovarian, 3.19 µM.

With `Oc1c(CN2CCOCC2)ccc2cccnc12`, the TGI with IGROV1 ovarian, with U251 CNS, with RXF 393 renal, in the assay with COLO 205 colon, in the assay with CAKI-1 renal and in the assay with MOLT-4 leukemia was over 10 µM each time. Besides, the TGI with KM12 colon, in the assay with A549 NSCLC, in the assay with SF-268 CNS, in the assay with 786-0 renal and in the assay with OVCAR-8 ovarian was over 10 µM in each case.

In the case of `COc1cc(Cn2c3c(c4cc(O)ccc42)Cc2ccccc2C3=O)cc(OC)c1`, the TGI in the assay with IGROV1 ovarian, in the assay with U251 CNS, in the assay with RXF 393 renal, with COLO 205 colon, with CAKI-1 renal and with MOLT-4 leukemia was over 100 µM in each case. The TGI with KM12 colon, in the assay with A549 NSCLC, in the assay with SF-268 CNS, with 786-0 renal and in the assay on OVCAR-8 ovarian was over 100 µM each time.

On to `CCOCc1nc2c(OC)cc(-c3nc4ccc(N5CCN(C)CC5)cc4[nH]3)c(OC)c2[nH]1`, for which the TGI in the assay on IGROV1 ovarian was over 100 µM; with U251 CNS, over 100 µM; in the assay on RXF 393 renal it was 36.2 µM; with COLO 205 colon, 38 µM; in the assay with CAKI-1 renal it was 81.9 µM; in the assay on MOLT-4 leukemia it was 76.6 µM. Moreover, the TGI with KM12 colon, in the assay on A549 NSCLC, with SF-268 CNS, with 786-0 renal and in the assay with OVCAR-8 ovarian was over 100 µM each time.

For the compound `COc1ccc(C(=C(Cl)c2ccccc2)c2ccc(OC)cc2)cc1`, the TGI with IGROV1 ovarian, with U251 CNS, with RXF 393 renal, in the assay on COLO 205 colon, in the assay with CAKI-1 renal and in the assay on MOLT-4 leukemia was over 100 µM each time. For the same compound, the TGI in the assay on KM12 colon, with A549 NSCLC, in the assay on SF-268 CNS, with 786-0 renal and with OVCAR-8 ovarian was over 100 µM each time.

As for `COc1cccc(-c2ccc3c4c2O[C@H]2C(=O)CC[C@@]5(O)[C@@H](C3)N(CC3CC3)CC[C@]425)c1`, the TGI in the assay with IGROV1 ovarian was found to be 44.2 µM; with U251 CNS it was 29.9 µM; in the assay on RXF 393 renal, 21.8 µM; with COLO 205 colon it was 26.7 µM; with CAKI-1 renal, 31 µM; in the assay on MOLT-4 leukemia, 24.7 µM. The TGI with KM12 colon is 31.7 µM; with A549 NSCLC, 35.5 µM; with SF-268 CNS, 40.3 µM; with 786-0 renal, 32.1 µM; with OVCAR-8 ovarian, 34.3 µM.

`CCN(CC)C(=O)Cn1c(C)cc2ccccc21`: the TGI with IGROV1 ovarian, in the assay with U251 CNS, in the assay with RXF 393 renal, in the assay with COLO 205 colon, in the assay with CAKI-1 renal and in the assay on MOLT-4 leukemia was over 100 µM throughout. Also, the TGI with KM12 colon, with A549 NSCLC, in the assay with SF-268 CNS, with 786-0 renal and in the assay on OVCAR-8 ovarian was over 100 µM in each case.

`O=C(NNC(=S)Nc1cccc(Cl)c1)c1cc(-c2ccccc2)nc2ccccc12`: the TGI in the assay on IGROV1 ovarian turned out to be 47 µM; in the assay with U251 CNS it was 30.4 µM; with RXF 393 renal, 32.7 µM; in the assay on COLO 205 colon it was 29.2 µM; in the assay on CAKI-1 renal it was 43.1 µM; with MOLT-4 leukemia, 74.6 µM. Further, the TGI with KM12 colon was determined as 49 µM; with A549 NSCLC it was 32.3 µM; with SF-268 CNS, 35.4 µM; in the assay with 786-0 renal it was 31.2 µM; in the assay with OVCAR-8 ovarian it was 53.3 µM.

For `CN1CCC(O)(C(C)(C)C)CC1`, the TGI in the assay with IGROV1 ovarian, with U251 CNS, with RXF 393 renal, with COLO 205 colon, in the assay with CAKI-1 renal and in the assay on MOLT-4 leukemia was over 100 µM each time. In addition, the TGI in the assay with KM12 colon, in the assay on A549 NSCLC, in the assay on SF-268 CNS, with 786-0 renal and in the assay on OVCAR-8 ovarian was over 100 µM throughout.

As to `Oc1ccc(-c2nc(-c3cccnc3)c(-c3ccc(Cl)cc3)[nH]2)cc1`, the TGI in the assay on IGROV1 ovarian was 23 µM; in the assay with U251 CNS it was 28.5 µM; in the assay with RXF 393 renal it was 26.5 µM; in the assay on COLO 205 colon, 23.9 µM; with CAKI-1 renal, 43.3 µM; with MOLT-4 leukemia it was 18.1 µM. The TGI is 25.7 µM in the assay with KM12 colon; 30.1 µM in the assay with A549 NSCLC; 29.6 µM in the assay on SF-268 CNS; 28.8 µM in the assay with 786-0 renal; 28.4 µM in the assay on OVCAR-8 ovarian.

Consider `c1ccc2c(c1)ccn2CCc1c[nH]c2ccccc12`, for which the TGI in the assay on IGROV1 ovarian, with U251 CNS, in the assay with RXF 393 renal, in the assay on COLO 205 colon, with CAKI-1 renal and in the assay with MOLT-4 leukemia was over 10 µM each time. Besides, the TGI in the assay with KM12 colon, with A549 NSCLC, with SF-268 CNS, in the assay on 786-0 renal and with OVCAR-8 ovarian was over 10 µM throughout.

Consider `NC(N)=N/N=C/c1c[nH]c2ccccc12`, for which the TGI in the assay with IGROV1 ovarian, in the assay on U251 CNS, in the assay with RXF 393 renal, in the assay on COLO 205 colon, with CAKI-1 renal and in the assay on MOLT-4 leukemia was over 100 µM throughout. Moreover, the TGI in the assay on KM12 colon, in the assay on A549 NSCLC, in the assay on SF-268 CNS, with 786-0 renal and in the assay with OVCAR-8 ovarian was over 100 µM in each case.

For the compound `CCOC(=O)/C=C(/C(=O)OCC)n1ccc(=O)n(Cc2cn(COCCOC(C)=O)nn2)c1=O`, the TGI is 31.9 µM in the assay on IGROV1 ovarian; 83.3 µM in the assay with U251 CNS; 56.2 µM in the assay on RXF 393 renal; over 100 µM in the assay on COLO 205 colon; 14 µM in the assay on CAKI-1 renal; 41.3 µM with MOLT-4 leukemia. Moreover, the TGI with KM12 colon was 35.9 µM; in the assay on A549 NSCLC, over 100 µM; with SF-268 CNS, 33.5 µM; with 786-0 renal, over 100 µM; in the assay with OVCAR-8 ovarian, 30 µM.

For the compound `Cc1ccc(-c2c(C#N)c(-c3ccc(Cl)cc3)c(C#N)c(=O)n2NS(=O)(=O)c2ccc(C)cc2)cc1`, the TGI in the assay with IGROV1 ovarian is over 100 µM; with U251 CNS it was over 100 µM; in the assay on RXF 393 renal, 65.7 µM; in the assay with COLO 205 colon it was over 100 µM; with CAKI-1 renal, over 100 µM; in the assay on MOLT-4 leukemia it was 40.6 µM. Further, the TGI in the assay on KM12 colon was 80.6 µM; with A549 NSCLC, 82.3 µM; in the assay on SF-268 CNS it was over 100 µM; in the assay on 786-0 renal it was over 100 µM; in the assay on OVCAR-8 ovarian it was over 100 µM.

Take `COC[C@@H](C[C@H]1O[C@@](O)([C@H](O)[C@@H]2C[C@H](OC)[C@@H](O)CC/C=C(C)/C=C/[C@@H](O[C@@H]3O[C@@H](C)[C@H](OC)[C@@H](O)[C@@H]3O)[C@H](C)/C=C(C)/C=C(C)/C=C(\C)C(=O)O2)[C@H](C)[C@@H](O)[C@H]1C)O[C@H]1C[C@](C)(O)[C@@H](O[C@H]2C[C@@H](OC)[C@H](O)[C@@H](C)O2)C(C)O1` (stereo not given in full): the TGI in the assay on IGROV1 ovarian is over 100 µM; with U251 CNS it was over 100 µM; in the assay on RXF 393 renal it was over 100 µM; in the assay with COLO 205 colon, over 100 µM; in the assay on CAKI-1 renal, over 100 µM; in the assay with MOLT-4 leukemia, over 64.3 µM. Also, the TGI in the assay with KM12 colon, in the assay on A549 NSCLC, with SF-268 CNS, in the assay with 786-0 renal and in the assay with OVCAR-8 ovarian was over 100 µM throughout.

Regarding `CC1(C)NC2C(=O)c3c([nH]c4ccccc34)[C@]3(C)CCC1CC23` (stereo not given in full), the TGI in the assay on IGROV1 ovarian, with U251 CNS, in the assay on RXF 393 renal, with COLO 205 colon, in the assay with CAKI-1 renal and in the assay on MOLT-4 leukemia was over 100 µM each time. Moreover, the TGI with KM12 colon, in the assay with A549 NSCLC, in the assay on SF-268 CNS, in the assay on 786-0 renal and in the assay with OVCAR-8 ovarian was over 100 µM each time.
